Reference: patent US20090270350A1, “Pyridinone Pyrazole Urea and Pyrimidinone Pyrazole Urea Derivatives” (PFIZER INC., priority 2006, published 2009)

The compounds below were run against p38α (Homo sapiens, UniProt Q16539) (assay: p38α/MK2 cascade assay). Conditions: Table 2; same p38α/MK2 cascade assay; 40 minutes preincubation; read-out: p38a/MK2 Cascade 40 min Pre-Incuabtion (% Inhibition): IC50.
Sequence of p38α (Q16539 whole entry): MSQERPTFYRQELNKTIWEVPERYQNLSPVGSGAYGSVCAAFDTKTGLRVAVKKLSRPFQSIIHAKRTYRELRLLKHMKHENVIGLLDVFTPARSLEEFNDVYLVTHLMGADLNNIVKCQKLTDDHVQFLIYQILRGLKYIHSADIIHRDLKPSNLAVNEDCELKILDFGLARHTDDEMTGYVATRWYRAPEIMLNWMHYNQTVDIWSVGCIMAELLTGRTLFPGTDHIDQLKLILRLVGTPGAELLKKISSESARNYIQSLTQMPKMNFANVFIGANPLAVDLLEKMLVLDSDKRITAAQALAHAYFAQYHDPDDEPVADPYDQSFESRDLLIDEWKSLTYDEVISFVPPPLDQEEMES
Type: biochemical
In short: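 In a cascade format, p38α was preincubated 40 min with inhibitor (1000–0.05 nM) before adding 1 nM nonactive MK2 (54-400), 5 μM MgATP and 0.5 μM FITC-Hsp27 peptide. Reaction ran 60 min in HEPES pH 7.5 with MgCl2, DTT, 2% DMSO, then EDTA-quenched. Peptide phosphorylation was measured by Caliper mobility shift to give IC50.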
Work on `COCCNC(=O)c1ccc(C)c(-n2c(C)cc(OCc3ccccc3CNC(=O)Nc3cc(C(C)(C)C)nn3-c3ccc(Cl)c(O)c3)c(Cl)c2=O)c1` [Example 230, 3-{4-[(2-{[({[3-tert-butyl-1-(4-chloro-3-hydroxyphenyl)-1H-pyrazol-5-yl]amino}carbonyl)amino]methyl}benzyl)oxy]-3-chloro-6-methyl-2-oxopyridin-1(2H)-yl}-N-(2-methoxyethyl)-4-methylbenzamide] yielded an IC50 of 1.92 nM. With `Cc1ccc(C(=O)NCCN(C)C)cc1-n1c(C)cc(OCc2ccccc2CNC(=O)Nc2cc(C(C)(C)C)nn2-c2ccc(Cl)c(O)c2)c(Cl)c1=O` [Example 231, 3-{4-[(2-{[({[3-tert-butyl-1-(4-chloro-3-hydroxyphenyl)-1H-pyrazol-5-yl]amino}carbonyl)amino]methyl}benzyl)oxy]-3-chloro-6-methyl-2-oxopyridin-1(2H)-yl}-N-[2-(dimethylamino)-ethyl]-4-methylbenzamide] the IC50 was 1.8 nM. For `COC(=O)c1ccc(C)c(-n2c(C)cc(OCc3ccc(F)cc3CNC(=O)Nc3cc(C(C)(C)C)nn3-c3ccc(O)cc3)c(Cl)c2=O)c1` [Example 232, methyl 3-{4-[(2-{[({[3-tert-butyl-1-(4-hydroxyphenyl)-1H-pyrazol-5-yl]amino}carbonyl)amino]methyl}-4-fluorobenzyl)-oxy]-3-chloro-6-methyl-2-oxopyridin-1(2H)-yl}-4-methylbenzoate], the IC50 was 4.4 nM. `Cc1ccc(C(=O)NCC(N)=O)cc1-n1c(C)cc(OCc2ccccc2CNC(=O)Nc2cc(C(C)(C)C)nn2-c2ccc(O)c(Cl)c2)c(Cl)c1=O` [Example 233, N-(2-amino-2-oxoethyl)-3-{4-[(2-{[({[3-tert-butyl-1-(3-chloro-4-hydroxyphenyl)-1H-pyrazol-5-yl]amino}carbonyl)amino]-methyl}benzyl)oxy]-3-chloro-6-methyl-2-oxopyridin-1(2H)-yl}-4-methylbenzamide] was tested, and the IC50 was 1.5 nM. For `Cc1ccc(C(=O)NCC(O)CO)cc1-n1c(C)cc(OCc2ccccc2CNC(=O)Nc2cc(C(C)(C)C)nn2-c2ccc(Cl)c(O)c2)c(Cl)c1=O` (stereo not shown) [Example 234, 3-{4-[(2-{[({[3-tert-butyl-1-(4-chloro-3-hydroxyphenyl)-1H-pyrazol-5-yl]amino}carbonyl)amino]methyl}benzyl)oxy]-3-chloro-6-methyl-2-oxopyridin-1(2H)-yl}-N-(2,3-dihydroxy-propyl)-4-methylbenzamide], the IC50 was 1.3 nM. For `COCCNC(=O)c1ccc(C)c(-n2c(C)cc(OCc3ccc(F)cc3CNC(=O)Nc3cc(C(C)(C)C)nn3-c3ccc(Cl)c(O)c3)c(Cl)c2=O)c1` [Example 235, 3-{4-[(2-{[({[3-tert-butyl-1-(4-chloro-3-hydroxyphenyl)-1H-pyrazol-5-yl]amino}carbonyl)amino]methyl}-4-fluorobenzyl)-oxy]-3-chloro-6-methyl-2-oxopyridin-1(2H)-yl}-N-(2-methoxy-ethyl)-4-methylbenzamide], the IC50 was 4.2 nM. `CNC(=O)c1ccc(C)c(-n2c(C)cc(OCc3ccc(F)cc3CNC(=O)Nc3cc(C(C)(C)C)nn3-c3ccc(O)c(Cl)c3)c(Cl)c2=O)c1` [Example 236, 3-{4-[(2-{[({[3-tert-butyl-1-(3-chloro-4-hydroxyphenyl)-1H-pyrazol-5-yl]amino}carbonyl)amino]methyl}-4-fluorobenzyl)-oxy]-3-chloro-6-methyl-2-oxopyridin-1(2H)-yl}-N,4-dimethyl-benzamide] gave an IC50 of 7.5 nM. Compound `COc1ccc(Cn2c(C)cc(OCc3ccccc3CNC(=O)Nc3cc(C(C)(C)C)nn3-c3ccccc3)c(C)c2=O)cc1` [Example 237, 1-(3-tert-butyl-1-phenyl-1H-pyrazol-5-yl)-3-[2-({[1-(4-methoxybenzyl)-3,6-dimethyl-2-oxo-1,2-dihydropyridin-4-yl]oxy}methyl)benzyl]urea] has an IC50 of 11.2 nM. For `COCCNC(=O)c1ccc(C)c(-n2c(C)cc(OCc3ccccc3CNC(=O)Nc3cc(C(C)(C)C)nn3-c3cccc(OCCO)c3)c(Cl)c2=O)c1` [Example 238, 3-[4-{[2-({[({3-tert-butyl-1-[3-(2-hydroxyethoxy)phenyl]-1H-pyrazol-5-yl}amino)carbonyl]amino}methyl)benzyl]oxy}-3-chloro-6-methyl-2-oxopyridin-1(2H)-yl]-N-(2-methoxyethyl)-4-methylbenzamide], the IC50 was 2 nM. For `Cc1ccc(C(=O)NCCO)cc1-n1c(C)cc(OCc2ccc(F)cc2CNC(=O)Nc2cc(C(C)(C)C)nn2-c2cccc(OCCO)c2)c(Cl)c1=O` [Example 239, 3-[4-{[2-({[({3-tert-butyl-1-[3-(2-hydroxyethoxy)phenyl]-1H-pyrazol-5-yl}amino)carbonyl]amino}methyl)-4-fluorobenzyl]-oxy}-3-chloro-6-methyl-2-oxopyridin-1(2H)-yl]-N-(2-hydroxy-ethyl)-4-methylbenzamide], the IC50 was 2.9 nM. Compound `Cc1ccc(C(=O)NCCN(C)C)cc1-n1c(C)cc(OCc2ccccc2CNC(=O)Nc2cc(C(C)(C)C)nn2-c2cccc(OCCO)c2)c(Cl)c1=O` [Example 240, 3-[4-{[2-({[({3-tert-butyl-1-[3-(2-hydroxyethoxy)phenyl]-1H-pyrazol-5-yl}amino)carbonyl]amino}methyl)benzyl]oxy}-3-chloro-6-methyl-2-oxopyridin-1(2H)-yl]-N-[2-(dimethylamino)-ethyl]-4-methylbenzamide] has an IC50 of 2.1 nM. In the case of `CSc1ccccc1Cn1c(C)cc(OCc2ccccc2CNC(=O)Nc2cc(C(C)(C)C)nn2-c2ccc(O)cc2)c(C)c1=O` [Example 241, 1-[3-tert-butyl-1-(4-hydroxyphenyl)-1H-pyrazol-5-yl]-3-{2-[({3,6-dimethyl-1-[2-(methylthio)benzyl]-2-oxo-1,2-dihydro-pyridin-4-yl}oxy)methyl]benzyl}urea], the IC50 is reported as 13.6 nM. Work on `COc1ccc(Cn2c(C)cc(OCc3ccccc3CNC(=O)Nc3cc(C(C)(C)C)nn3-c3cccc(Cl)c3)c(Br)c2=O)c(OC)c1` [Example 242, 1-[2-({[3-bromo-1-(2,4-dimethoxybenzyl)-6-methyl-2-oxo-1,2-dihydropyridin-4-yl]oxy}methyl)benzyl]-3-[3-tert-butyl-1-(3-chlorophenyl)-1H-pyrazol-5-yl]urea] yielded an IC50 of 10.8 nM. In the case of `COc1ccc(Cn2c(C)cc(OCc3ccccc3CNC(=O)Nc3cc(C(C)(C)C)nn3-c3ccccc3)c(C)c2=O)c(OC)c1` [Example 243, 1-(3-tert-butyl-1-phenyl-1H-pyrazol-5-yl)-3-[2-({[1-(2,4-dimethoxybenzyl)-3,6-dimethyl-2-oxo-1,2-dihydropyridin-4-yl]oxy}methyl)benzyl]urea], the IC50 is reported as 9.54 nM. In the case of `COc1ccc(Cn2c(C)cc(OCc3ccccc3CNC(=O)Nc3cc(C(C)(C)C)nn3-c3ccc(F)cc3F)c(C)c2=O)c(OC)c1` [Example 244, 1-[3-tert-butyl-1-(2,4-difluorophenyl)-1H-pyrazol-5-yl]-3-[2-({[1-(2,4-dimethoxybenzyl)-3,6-dimethyl-2-oxo-1,2-dihydropyridin-4-yl]oxy}methyl)benzyl]urea], the IC50 is reported as 13.7 nM. Work on `COc1ccc(Cn2c(C)cc(OCc3ccccc3CNC(=O)Nc3cc(C(C)(C)C)nn3-c3ccc(C)cc3)c(C)c2=O)c(OC)c1` [Example 245, 1-[3-tert-butyl-1-(4-methylphenyl)-1H-pyrazol-5-yl]-3-[2-({[1-(2,4-dimethoxybenzyl)-3,6-dimethyl-2-oxo-1,2-dihydropyridin-4-yl]oxy}methyl)benzyl]urea] yielded an IC50 of 13.4 nM. `COc1ccccc1Cn1c(C)cc(OCc2ccccc2CNC(=O)Nc2cc(C(C)(C)C)nn2-c2ccc(O)cc2)c(Cl)c1=O` [Example 246, 1-[3-tert-butyl-1-(4-hydroxyphenyl)-1H-pyrazol-5-yl]-3-[2-({[3-chloro-1-(2-methoxybenzyl)-6-methyl-2-oxo-1,2-dihydropyridin-4-yl]oxy}methyl)benzyl]urea] showed an IC50 of 10 nM. For `COc1ccccc1Cn1c(C)cc(OCc2ccccc2CNC(=O)Nc2cc(C(C)(C)C)nn2-c2cccc(O)c2)c(Cl)c1=O` [Example 247, 1-[3-tert-butyl-1-(3-hydroxyphenyl)-1H-pyrazol-5-yl]-3-[2-({[3-chloro-1-(2-methoxybenzyl)-6-methyl-2-oxo-1,2-dihydropyridin-4-yl]oxy}methyl)benzyl]urea], the IC50 was 10.5 nM. In the case of `COc1ccccc1Cn1c(C)cc(OCc2ccccc2CNC(=O)Nc2cc(C(C)(C)C)nn2-c2ccc(O)c(Cl)c2)c(Cl)c1=O` [Example 248, 1-[3-tert-butyl-1-(3-chloro-4-hydroxyphenyl)-1H-pyrazol-5-yl]-3-[2-({[3-chloro-1-(2-methoxybenzyl)-6-methyl-2-oxo-1,2-dihydropyridin-4-yl]oxy}methyl)benzyl]urea], the IC50 is reported as 15.1 nM. Compound `COc1ccc(Cn2c(C)cc(OCc3ccccc3CNC(=O)Nc3cc(C(C)(C)C)nn3-c3ccc(O)c(Cl)c3)c(C)c2=O)cc1C#N` [Example 249, 1-[3-tert-butyl-1-(3-chloro-4-hydroxyphenyl)-1H-pyrazol-5-yl]-3-[2-({[1-(3-cyano-4-methoxybenzyl)-3,6-dimethyl-2-oxo-1,2-dihydropyridin-4-yl]oxy}methyl)benzyl]urea] has an IC50 of 9.6 nM. `COc1ccc(Cn2c(C)cc(OCc3ccccc3CNC(=O)Nc3cc(C(C)(C)C)nn3-c3cccc(OCCO)c3)c(C)c2=O)cc1C#N` [Example 250, 1-{3-tert-butyl-1-[3-(2-hydroxyethoxy)phenyl]-1H-pyrazol-5-yl}-3-[2-({[1-(3-cyano-4-methoxybenzyl)-3,6-dimethyl-2-oxo-1,2-dihydropyridin-4-yl]oxy}methyl)benzyl]urea] showed an IC50 of 8.4 nM. Work on `COc1ccc(Cn2c(C)cc(OCc3ccccc3CNC(=O)Nc3cc(C(C)(C)C)nn3-c3ccc(Cl)c(O)c3)c(C)c2=O)cc1C#N` [Example 251, 1-[3-tert-butyl-1-(4-chloro-3-hydroxyphenyl)-1H-pyrazol-5-yl]-3-[2-({[1-(3-cyano-4-methoxybenzyl)-3,6-dimethyl-2-oxo-1,2-dihydropyridin-4-yl]oxy}methyl)benzyl]urea] yielded an IC50 of 8.4 nM.
